Patent US6495715B2, “Calcium channel blockers” (Warner-Lambert Company, priority 1997, dated 2002)

Assays:
N-type Ca2+ channel = molecular target: T1, N-type Ca2+ channel (Homo sapiens, UniProt Q00975); experiment: Measurement of N-type Ca2+ channel blocking potencies in IMR-32 cells using the fluorescent Ca2+ indicator Indo-1; format: cell-based; conditions: for IC50: K+-stimulated Ca2+ flux, 5 μM nitrendipine to block L-type channels; for inhibition at 1 µM: read-out: IMR 32 % of Blockade @ 1 μM; for inhibition at 10 µM: read-out: IMR 32 % of Blockade @ 10 μM
T1 construct: host or cells: IMR-32 cells, differentiated with dibutyryl cAMP and bromodeoxyuridine
Protocol: Measurement of N-type Ca^2+ Channel Blocking Potencies of Compounds in IMR-32 Cells Using the Fluorescent Ca^2+Indicator Indo-1
IMR-32 cells are a human tumoral cell line of neural origin. […] Calcium flux into these cells may be induced by stimulation with elevated potassium concentrations. The L-channel component of calcium flux may be blocked by adding 5 μM nitrendipine. The remaining component of calcium entry into the IMR-32 cells is due to calcium flux through N-type calcium channels. Intracellular calcium concentrations are measured using the fluorescent calcium indicator Indo-1. The effect of drug concentration on calcium uptake is studied.
The IMR-32 cell line was obtained from the American Type Culture Collection (Rockville, Md.). Cells were grown in Eagle's Minimum Essential Medium with Earle's salts supplemented with 10% fetal bovine serum, 2 mM L-Gln and antibiotic/antimycotic mixture (Gibco). […] After 7 to 13 days of differentiation, cells were detached using 0.5 mM EDTA and loaded with 5 μM Indo-1 acetoxymethyl ester (Molecular Probes, Eugene, Oreg.) at 30° C. for 45 minutes. Loaded cells were washed twice, resuspended (˜10^7 cells/mL) in assay buffer (10 mM HEPES/Tris pH 7.4 in Hank's Balanced Salt Solution without bicarbonate or phenol red containing 0.5% bovine serum albumin) and kept on ice until use. Fluorescence measurements were carried out in a Photon Technology International (PTI, South Brunswick, N.J.) Model RF-F3004 spectrofluorometer with dual emission monochromators using excitation at […] and emission at 400 and 490 nm. The instrument was equipped with a thermostated cuvette holder with stirring capabilities as well as with a computer-controlled pump which allowed for reagent addition during measurement. Instrument control and data collection was done by PTI's OSCAR software running on an IBM compatible computer. Different concentrations of the test compounds (60 μL in dimethyl sulfoxide) were added to 5.94 mL of assay buffer containing approximately 3×10^6 loaded cells, and 5 μM Nitrendipine (in […] EtOH) to block L-type Ca^2+ channels. Samples were incubated for 10 minutes at 30° C. and then aliquoted into three 10×10 mm disposable acrylic cuvettes. Emission signals at 400 and 490 nm were acquired from each cuvette at 30° C. for 50 seconds. At 20 seconds after the start of reading, cells were depolarized by the addition of 160 μL of stimulation solution (1 M KCl, 68 mM CaCl2) to the cuvette via the computer-controlled pump. Ratio of dual emission signals (400 nm/490 nm), which is proportional to intracellular Ca^2+ concentration, was plotted against time, and the difference between maximal response after stimulation and basal value (before stimulation) was determined. Values obtained in this way were plotted as a function of drug concentration. IC50 values of test compounds were calculated by fitting a four-parameter logistic function to the data using the least squares method.

DBA/2 mice = experiment: Audiogenic seizure (anticonvulsant) test in DBA/2 mice; format: in vivo; conditions: Mus musculus, intravenous, sound-induced tonic seizures, tested 15 or 45 minutes after injection, read-out: DBA/2 mice % Protection
Protocol: In vivo Biological Protocol:
A compound of the present invention was dissolved in water using 10% (weight/volume) Emulphor (GAF Corp., Wayne, N.J.) surfactant. Substances were administered by intravenous injection into the retro-orbital venous sinus. All testing was performed 15 minutes or 45 minutes after drug injection. All the male mice, 3-4 weeks old were obtained from Jackson Laboratories Bar Harbour, Me. Immediately before anticonvulsant testing, mice were placed upon a wire mesh, 4 inches square suspended from a steel rod. The square was slowly inverted through 180 degrees and mice observed for 30 seconds. Any mouse falling from the wire mesh was scored as ataxia.
Mice were placed into an enclosed acrylic plastic chamber (21 cm height, approximately 30 cm diameter) with a high-frequency speaker (4 cm diameter) in the center of the top lid. An audio signal generator (Protek model B-810) was used to produce a continuous sinusoidal tone that was swept linearly in frequency between 8 kHz and 16 kHz once each 10 msec. The average sound pressure level (SPL) during stimulation was approximately 100 dB at the floor of the chamber. Mice were placed within the chamber and allowed to acclimatize for 1 minute. DBA/2 mice in the vehicle-treated group responded to the sound stimulus (applied until tonic extension occurred, or for a maximum of 60 sec) with a characteristic seizure sequence consisting of wild running followed by clonic seizures, and later by tonic extension, and finally by respiratory arrest and death in 80% or more of the mice. In vehicle-treated mice, the entire sequence of seizures to respiratory arrest lasts approximately 15-20 seconds.
The incidence of all the seizure phases in the drug-treated and vehicle-treated mice was recorded, and the occurrence of tonic seizures were used for calculating anticonvulsant ED50 values by probit analysis. Mice were used only once for testing at each time and dose point.

[1] = 1 μM compound, 5 μM nitrendipine
[2] = 10 μM compound, 5 μM nitrendipine

T1 sequence (Q00975 whole entry): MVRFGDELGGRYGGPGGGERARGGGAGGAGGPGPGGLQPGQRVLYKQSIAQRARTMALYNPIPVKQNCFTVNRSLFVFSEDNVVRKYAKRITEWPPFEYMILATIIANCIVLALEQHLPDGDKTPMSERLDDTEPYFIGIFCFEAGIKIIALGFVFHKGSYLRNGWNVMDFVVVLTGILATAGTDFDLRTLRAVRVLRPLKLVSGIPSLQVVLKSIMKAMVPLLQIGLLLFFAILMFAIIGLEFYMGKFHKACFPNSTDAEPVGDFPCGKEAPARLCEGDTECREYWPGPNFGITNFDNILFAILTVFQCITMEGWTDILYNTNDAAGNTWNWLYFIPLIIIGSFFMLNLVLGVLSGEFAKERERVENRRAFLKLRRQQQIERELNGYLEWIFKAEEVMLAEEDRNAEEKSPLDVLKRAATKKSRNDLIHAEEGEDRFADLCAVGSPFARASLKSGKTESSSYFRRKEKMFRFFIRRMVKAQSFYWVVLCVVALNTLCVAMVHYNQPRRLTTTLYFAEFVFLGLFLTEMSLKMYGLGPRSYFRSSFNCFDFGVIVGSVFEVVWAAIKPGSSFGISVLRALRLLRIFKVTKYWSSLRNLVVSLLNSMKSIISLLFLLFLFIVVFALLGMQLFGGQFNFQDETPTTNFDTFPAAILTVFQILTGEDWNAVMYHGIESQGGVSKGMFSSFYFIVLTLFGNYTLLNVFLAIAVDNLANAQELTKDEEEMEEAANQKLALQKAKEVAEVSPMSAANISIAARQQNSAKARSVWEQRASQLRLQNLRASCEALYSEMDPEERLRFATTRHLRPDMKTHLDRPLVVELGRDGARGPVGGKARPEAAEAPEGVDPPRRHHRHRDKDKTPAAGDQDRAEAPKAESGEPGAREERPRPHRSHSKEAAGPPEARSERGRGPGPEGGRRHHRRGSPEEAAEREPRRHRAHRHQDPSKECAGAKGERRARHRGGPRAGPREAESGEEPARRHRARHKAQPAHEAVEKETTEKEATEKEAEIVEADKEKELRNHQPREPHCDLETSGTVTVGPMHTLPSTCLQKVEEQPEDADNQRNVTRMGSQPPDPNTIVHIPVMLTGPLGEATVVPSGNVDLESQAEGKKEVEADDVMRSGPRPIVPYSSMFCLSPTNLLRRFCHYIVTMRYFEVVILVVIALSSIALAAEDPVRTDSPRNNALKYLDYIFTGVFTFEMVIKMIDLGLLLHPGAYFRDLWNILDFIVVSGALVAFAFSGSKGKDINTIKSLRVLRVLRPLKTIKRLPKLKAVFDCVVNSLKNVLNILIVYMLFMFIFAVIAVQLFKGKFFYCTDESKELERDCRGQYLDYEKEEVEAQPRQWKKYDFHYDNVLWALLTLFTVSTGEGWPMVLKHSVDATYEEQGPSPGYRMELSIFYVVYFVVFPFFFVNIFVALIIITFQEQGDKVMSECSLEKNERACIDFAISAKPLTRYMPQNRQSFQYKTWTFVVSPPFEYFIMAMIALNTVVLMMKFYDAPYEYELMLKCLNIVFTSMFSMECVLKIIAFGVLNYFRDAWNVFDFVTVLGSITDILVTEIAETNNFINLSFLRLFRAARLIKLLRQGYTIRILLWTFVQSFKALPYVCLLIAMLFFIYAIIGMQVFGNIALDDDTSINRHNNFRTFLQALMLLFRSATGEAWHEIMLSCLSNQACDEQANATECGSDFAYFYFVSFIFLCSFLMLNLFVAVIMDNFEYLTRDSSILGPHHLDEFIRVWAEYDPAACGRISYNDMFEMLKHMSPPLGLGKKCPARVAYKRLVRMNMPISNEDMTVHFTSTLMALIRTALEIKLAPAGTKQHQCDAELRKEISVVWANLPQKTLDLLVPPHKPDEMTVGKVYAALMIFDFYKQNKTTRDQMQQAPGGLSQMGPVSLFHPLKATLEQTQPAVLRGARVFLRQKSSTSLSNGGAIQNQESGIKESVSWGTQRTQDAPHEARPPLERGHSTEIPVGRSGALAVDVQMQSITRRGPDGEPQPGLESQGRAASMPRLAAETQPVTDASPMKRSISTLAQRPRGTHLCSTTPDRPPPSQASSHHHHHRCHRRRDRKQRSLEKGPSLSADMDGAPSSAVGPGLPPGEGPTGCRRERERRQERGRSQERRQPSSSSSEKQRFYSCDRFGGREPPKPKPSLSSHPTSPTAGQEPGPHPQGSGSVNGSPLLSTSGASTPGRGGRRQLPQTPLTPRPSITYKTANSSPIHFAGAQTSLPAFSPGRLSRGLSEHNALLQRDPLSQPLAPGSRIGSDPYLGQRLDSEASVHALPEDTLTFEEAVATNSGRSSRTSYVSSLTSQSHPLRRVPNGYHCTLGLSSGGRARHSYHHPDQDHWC
T1 sequence (P54289 25-956 partner limits assumed): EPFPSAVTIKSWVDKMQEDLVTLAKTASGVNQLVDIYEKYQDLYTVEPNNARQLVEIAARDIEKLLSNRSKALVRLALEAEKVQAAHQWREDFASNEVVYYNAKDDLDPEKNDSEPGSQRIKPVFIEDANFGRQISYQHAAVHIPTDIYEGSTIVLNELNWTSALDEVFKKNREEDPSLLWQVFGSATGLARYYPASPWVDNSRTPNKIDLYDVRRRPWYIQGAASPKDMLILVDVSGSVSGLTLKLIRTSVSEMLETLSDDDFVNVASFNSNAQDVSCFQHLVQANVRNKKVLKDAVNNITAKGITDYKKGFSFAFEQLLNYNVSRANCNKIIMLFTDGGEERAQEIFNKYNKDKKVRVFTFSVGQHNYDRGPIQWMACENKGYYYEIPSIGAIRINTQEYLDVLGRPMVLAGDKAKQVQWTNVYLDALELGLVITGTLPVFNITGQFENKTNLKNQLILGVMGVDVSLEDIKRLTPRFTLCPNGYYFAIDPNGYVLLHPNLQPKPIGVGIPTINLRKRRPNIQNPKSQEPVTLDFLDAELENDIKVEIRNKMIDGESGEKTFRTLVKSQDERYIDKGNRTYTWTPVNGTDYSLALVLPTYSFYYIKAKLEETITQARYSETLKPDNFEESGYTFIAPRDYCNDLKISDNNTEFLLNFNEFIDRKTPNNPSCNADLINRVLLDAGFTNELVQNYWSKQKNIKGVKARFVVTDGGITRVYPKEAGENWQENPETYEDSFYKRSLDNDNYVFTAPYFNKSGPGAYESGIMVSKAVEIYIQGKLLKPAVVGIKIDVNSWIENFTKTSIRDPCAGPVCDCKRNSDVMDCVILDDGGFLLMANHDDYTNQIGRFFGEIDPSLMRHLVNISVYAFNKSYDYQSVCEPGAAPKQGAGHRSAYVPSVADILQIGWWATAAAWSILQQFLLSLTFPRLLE
T1 sequence (P54289 957-1103 partner limits assumed): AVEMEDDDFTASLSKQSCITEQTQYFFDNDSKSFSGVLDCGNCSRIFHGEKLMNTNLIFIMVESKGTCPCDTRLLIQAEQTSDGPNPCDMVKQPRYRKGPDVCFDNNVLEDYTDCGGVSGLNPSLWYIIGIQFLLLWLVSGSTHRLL
T1 sequence (Q02641 whole entry partner): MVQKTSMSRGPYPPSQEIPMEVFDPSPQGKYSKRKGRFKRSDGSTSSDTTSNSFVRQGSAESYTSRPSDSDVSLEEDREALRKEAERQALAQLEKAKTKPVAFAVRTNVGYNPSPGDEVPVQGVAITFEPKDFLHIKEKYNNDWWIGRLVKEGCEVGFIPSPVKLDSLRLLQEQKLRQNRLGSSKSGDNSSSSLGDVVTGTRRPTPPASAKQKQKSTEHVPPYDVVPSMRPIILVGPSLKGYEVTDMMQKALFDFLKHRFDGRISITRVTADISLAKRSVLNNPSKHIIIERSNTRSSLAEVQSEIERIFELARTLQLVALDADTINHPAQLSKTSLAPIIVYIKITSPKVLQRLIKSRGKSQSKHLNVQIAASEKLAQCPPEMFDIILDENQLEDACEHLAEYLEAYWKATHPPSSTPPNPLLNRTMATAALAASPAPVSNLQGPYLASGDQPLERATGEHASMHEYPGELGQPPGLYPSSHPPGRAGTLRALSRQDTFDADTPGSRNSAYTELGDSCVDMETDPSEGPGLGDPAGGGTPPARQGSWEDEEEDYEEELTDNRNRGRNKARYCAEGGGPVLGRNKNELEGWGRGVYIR

| Structure (SMILES) | IC50 (N-type Ca2+ channel) [nM] | responders at 30 mg/kg (DBA/2 mice) [%] | other results |
| --- | --- | --- | --- |
| CC(C)=CCN(CC(C)(C)NC(=O)[C@H](CC(C)C)NC(=O)N1CCCCCC1)c1ccc(OCc2ccccc2)cc1 [Example 1] | 260 | 60 |  |
| CC(C)=CCN(c1ccc(OCc2ccccc2)cc1)C1CCN(C[C@@H](N)CC(C)C)CC1 [Example 47, (S)-[1-(2-Amino-4-methyl-pentyl)-piperidin-4-yl]-(4-benzyloxy-phenyl)-(3-methyl-but-2-enyl)-amine] |  |  | inhibition at 1 µM (N-type Ca2+ channel; [1]): 44%; inhibition at 10 µM (N-type Ca2+ channel; [2]): 100%; responders at 10 mg/kg (DBA/2 mice): 80% |
| CCC(C)[C@H](N)C(=O)N1CCC(N(CC=C(C)C)c2ccc(OCc3ccccc3)cc2)CC1 (stereo partly drawn) [Example 22, (S)-2-Amino-1-{4-[(4-benzyloxy-phenyl)-(3-methyl-but-2-enyl)-amino]-piperidin-1-yl}-3-methyl-pentan-1-one] |  |  | inhibition at 1 µM (N-type Ca2+ channel; [1]): 39%; inhibition at 10 µM (N-type Ca2+ channel; [2]): 90%; responders at 10 mg/kg (DBA/2 mice): 100% |
| CC(C)=CCN(c1ccc(OCc2ccccc2)cc1)C1CCN(C(=O)[C@H](CC(C)C)NCCC(C)C)CC1 [Example 25, (S)-1-{4-[(4-Benzyloxy-phenyl)-(3-methyl-but-2-enyl)-amino]-piperidin-1-yl}-4-methyl-2-(3-methyl-butylamino)-pentan-1-one] | 480 | 80 |  |
| CC(C)=CCN(c1ccc(OCc2ccccc2)cc1)C1CCN(C(=O)[C@@H](N)CC(C)C)CC1 [Example 20, (S)-2-Amino-1-{4-[(4-benzyloxy-phenyl)-(3-methyl-but-2-enyl)-amino]-piperidin-1-yl}-4-methyl-pentan-1-one] | 2400 |  | responders at 10 mg/kg (DBA/2 mice): 100% |
| CC(C)CC(NC(=O)N1CCCCCC1)C(=O)N1CCC(N(CCC(C)O)c2ccc(OCc3ccccc3)cc2)CC1 (stereo not shown) [Example 32, Azepane-1-carboxylic acid (1-{4-[(4-benzyloxy-phenyl)-(3-hydroxy-butyl)-amino]-piperidine-1-carbonyl}-3-methyl-butyl)-amide] | 4600 | 60 |  |
| CC(C)=CCN(C[C@H](C)NC(=O)[C@H](CC(C)C)N(CCC(C)C)CCC(C)C)c1ccc(OCc2ccccc2)cc1 (relative stereo) [Example 18, [S-(R*,R*)]-2-[Bis-(3-methyl-butyl)-amino]-4-methyl-pentanoic acid {2-[(4-benzyloxy-phenyl)-(3-methyl-but-2-enyl)-amino]-1-methyl-ethyl}-amide] |  |  | IMR 32 % of Blockade @ 1 μM (N-type Ca2+ channel; [1]): 67%; IMR 32 % of Blockade @ 10 μM (N-type Ca2+ channel; [2]): 71% |
| CC(C)=CCN(c1ccc(OCc2ccccc2)cc1)C1CCCN(C(=O)[C@@H](N)CC(C)C)C1 (mixture of isomers) [Example 45, (S, R/S)-2-Amino-1-{3-[(4-benzyloxy-phenyl)-(3-methyl-but-2-enyl)-amino]-piperidin-1-yl}-4-methyl-pentan-1-one] |  |  | inhibition at 1 µM (N-type Ca2+ channel; [1]): 40%; inhibition at 10 µM (N-type Ca2+ channel; [2]): 100% |
| CC(C)=CCN(CC(C)(C)NC(=O)[C@H](CC(C)C)N(C)C1C=CCCC1)c1ccc(OCc2ccccc2)cc1 (stereo partly drawn) [Example 12, (S)-2-(Cyclohex-2-enyl-methyl-amino)-4-methyl-pentanoic acid {2-[(4-benzyloxy-phenyl)-(3-methyl-but-2-enyl)-amino]-1,1-dimethyl-ethyl}-amide] | 630 |  |  |
| CC(C)C[C@H](NC(=O)N1CCCCCC1)C(=O)NC(C)(C)CN(c1ccc(OCc2ccccc2)cc1)C1C=CCCC1 (stereo partly drawn) [Example 8, (S)-Azepane-1-carboxylic acid (1-{2-[(4-benzyloxy-phenyl)-cyclohex-2-enyl-amino]-1,1-dimethyl-ethylcarbamoyl}-3-methyl-butyl)-amide] |  |  | inhibition at 1 µM (N-type Ca2+ channel; [1]): 55%; inhibition at 10 µM (N-type Ca2+ channel; [2]): 76% |

Now from value to molecule, other results behind:

| IC50 (N-type Ca2+ channel) [nM] | Structure (SMILES) | responders at 30 mg/kg (DBA/2 mice) [%] | other results |
| --- | --- | --- | --- |
| 180 | CC(C)CCN(c1ccc(NCCC(C)(C)C)cc1)C1CCN(C(=O)[C@H](CC(C)C)NC(=O)N2CCCCCC2)CC1 [Example 36, (S)-Azepane-1-carboxylic acid (1-{4-[[4-(3,3-dimethyl-butylamino)-phenyl]-(3-methyl-butyl)-amino]-piperidine-1-carbonyl}-3-methyl-butyl)-amide] | 80 |  |
| 1800 | CC(C)CCN(c1ccc(NCCC(C)O)cc1)C1CCN(C(=O)[C@H](CC(C)C)NC(=O)N2CCCCCC2)CC1 (stereo partly drawn) [Example 38, (S)-Azepane-1-carboxylic acid (1-{4-[[4-(3-hydroxy-butylamino)-phenyl]-(3-methyl-butyl)-amino]-piperidine-1-carbonyl}-3-methyl-butyl)-amide] | 60 |  |
| 2200 | CC(C)CCN(c1ccc(N)cc1)C1CCN(C(=O)[C@H](CC(C)C)NC(=O)N2CCCCCC2)CC1 [Example 35, (S)-Azepane-1-carboxylic acid (1-{4-[(4-amino-phenyl)-(3-methyl-butyl)-amino]-piperidine-1-carbonyl}-3-methyl-butyl)-amide] | 20 |  |
| 390 | CC(C)=CCN(c1ccc(OCc2ccccc2)cc1)C1CCN(C(=O)[C@H](CC(C)C)NCc2ccc[nH]2)CC1 [Example 27, (S)-1-{4-[(4-Benzyloxy-phenyl)-(3-methyl-but-2-enyl)-amino]-piperidin-1-yl}-4-methyl-2-[(1H-pyrrol-2-ylmethyl)-amino]-pentan-1-one] |  |  |
| 650 | CC(C)=CCN(c1ccc(OCc2ccccc2)cc1)C1CCN(C(=O)[C@H](CC(C)C)N(C)C)CC1 [Example 23, (S)-1-{4-[(4-Benzyloxy-phenyl)-(3-methyl-but-2-enyl)-amino]-piperidin-1-yl}-2-dimethylamino-4-methyl-pentan-1-one] |  | responders at 10 mg/kg (DBA/2 mice): 40% |
| 2500 | CC(C)C[C@H](NC(=O)N1CCCCCC1)C(=O)N1CCC(Nc2ccc(OCc3ccccc3)cc2)CC1 [Example 28, (S)-Azepane-1-carboxylic acid {1-[4-(4-benzyloxy-phenylamino)-piperidine-1-carbonyl]-3-methyl-butyl}-amide] |  |  |
| 690 | CC(C)CCN(c1ccc(NCc2ccc(O)cc2)cc1)C1CCN(C(=O)[C@H](CC(C)C)NC(=O)N2CCCCCC2)CC1 [Example 42, (S)-Azepane-1-carboxylic acid (1-{4-[[4-(4-hydroxy-benzylamino)-phenyl]-(3-methyl-butyl)-amino]-piperidine-1-carbonyl}-3-methyl-butyl)-amide] | 20 |  |
| 750 | CC(C)=CCN(c1ccc(OCc2ccccc2)cc1)C1CCN(C(=O)[C@H](CC(C)C)NC(C)C)CC1 [Example 24, (S)-1-{4-[(4-Benzyloxy-phenyl)-(3-methyl-but-2-enyl)-amino]-piperidin-1-yl}-2-isopropylamino-4-methyl-pentan-1-one] |  |  |
